# Experimental data from US5858670A, “Bio-oligomer libraries and a method of use thereof” (The Arizona Board of Regents, priority 1996, dated 1999).
# Like-named read-outs stand apart in the source and are kept apart here. Where no end group is shown, it is not given here. [ ]: non-standard residue; d: D form. Ahx = NCCCCCC(=O)O; βAla = NCCC(=O)O
# Experiments:
# [1] = molecular target: T1, streptavidin (Streptomyces avidinii, UniProt P22629); assay: biotin inhibition of LHPQF-resin staining by streptavidin-alkaline phosphatase; assay type: binding
# T1 construct: purchased Pierce, Rockford, Ill
# T1 sequence (P22629 25-183, species assumed): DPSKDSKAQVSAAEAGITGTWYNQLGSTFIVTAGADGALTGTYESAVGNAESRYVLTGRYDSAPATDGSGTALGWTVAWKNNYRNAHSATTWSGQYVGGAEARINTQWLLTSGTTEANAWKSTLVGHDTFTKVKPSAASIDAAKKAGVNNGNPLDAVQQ
# Method: FIG. 8. […] A: 100 nM; B: 10 nM; C: 1 nM; and D: 0.1 nM biotin. Blank beads (β-Ala-aminocaproic acid-resin) were mixed 1:1 with the LHPQFD-resin prior to incubating with streptavidin-alkaline phosphatase to serve as an internal negative control.
# The LHPQF-resin was then mixed with streptavidin-alkaline phosphatase in the presence of varying concentration of biotin. […] The inhibition study establishes that the HPQ consensus sequence binds to the biotin-binding site of streptavidin.
# [2] = UV/VIS irradiation of ONb-linked peptide resins, HPLC of released product; assay type: physicochemical; conditions: in water
# Method: Each peptide was irradiated for 1 and 3 hours with ultraviolet (UV) and visible (VIS) light in 0.3 ml of water or 3/7 mixture of chloroethanol:dichloromethane. A total of 16+16 experiments were run and assayed.
# After exposure the supernatant was filtered off, lyophilized and re-dissolved to equal volumes of MeOH (0.3 ml). The products were analyzed on the HPLC.
# [3] = molecular target: anti-v-mos MAb; assay: solution phase binding studies with [3H]Ac-v-mos radioligand; parameters: species or system mouse; conditions: competition with 20 nM [3H]Ac-v-mos for 10 μg/ml anti-v-mos MAb
# Method: Peptide ligand affinity for anti-v-mos mAb was measured by solution phase binding studies using [^3 H]acetyl v-mos peptide ([^3 H]Ac-v-mos) as the radioligand. The radioligand was prepared by N-terminal acetylation of v-mos peptide, prior to the deprotection of the side chains, with an equimolar amount of [^3 H]sodium acetate (specific activity=2.52 Ci/mmole, New England Nuclear, Boston, Mass.). […] Specific binding was defined as the difference between [^3 H]Ac-v-mos binding in-the presence (nonspecific) and absence (total) of 100 μM unlabelled v-mos peptide for each [^3 H]Ac-v-mos concentration. Bound radioligand was separated by centrifugation using a 10-fold excess (binding capacity relative to immunoglobulin used) of Protein-G Sepharose (Pharmacia) to precipitate the antibody. […] Over 50% of the total binding was specific in the inhibition studies. Saturation and inhibition binding constants were determined for single site binding by nonlinear regression analysis as previously described (Knapp and Yamamura, 1990, Life Sci. 46:1457-1463).
# [4] = tested on: anti-v-mos monoclonal antibody; assay: bead staining with anti-v-mos monoclonal antibody and alkaline phosphatase secondary antibody (Example 8); assay type: binding, mouse; conditions: 1 μg/ml MAb, secondary antibody 1:2000, BCIP/NBT, 15 minutes
# Method: The long v-mos beads were mixed with a thousand fold excess of the short v-mos beads. Two milliliters of the purified anti-v-mos monoclonal antibody (1 μg/ml) in PBS with 0.1% Tween 20 was added to the mixture of long and short v-mos beads and incubated at room temperature for one hour with gentle mixing. […]. The beads were then washed on a small polypropylene disposable column (obtained from Isolab) where the beads were retained by the frit. The beads were then mixed with 2 ml of a secondary antibody at 1:2000 dilution for one hour. After washing, the beads were poured into a polystyrene petri dish and allowed to settle. The supernatant was removed and a solution of 5-bromo-4-chloro-3-indoyl phosphate and nitro blue tetrazolium was gently added as a substrate.
# This made it possible immediately to detect a single dark bead within a lawn of thousands of colorless beads. The distinction between the beads is illustrated in FIGS. 2 to 4, all of which are photographs at 40× magnification of the beads distributed in petri dishes. […] Accordingly, the beads that contained the peptide sequence of interest were readily distinguished and isolated from the other beads in the library.
# [5] = tested on: anti-v-mos; conditions: cited from earlier work
# [6] = tested on: anti-v-mos monoclonal antibody; assay: PAM resin bead staining with anti-v-mos monoclonal antibody and labelled secondary antibody (Example 9); assay type: binding, mouse; conditions: 1 ug/ml MAb, secondary antibody 1:100, ABTS with H2O2, 15 minutes
# Method: Approximately 0.1 mg of the PAM resin/v-mos peptide described above was mixed with a hundred-fold excess of N^β -Fmoc-alanine PAM resin beads obtained from Bachem, Inc. Two ml of the purified monoclonal antibody (1 ug/ml) in PBS plus 0.1% Tween 20 were added to the peptide/support mixture and incubated at room temperature for 45 minutes with gentle mixing.
# The beads were washed on a small polypropylene disposable column (obtained from Isolab) which retained the beads on a frit. The beads were then mixed with 2 ml of […] secondary antibody (1:100 dilution) for one hour. After washing, the beads were spread on a piece of glass filter and soaked in 2,2'-azinobis (3-ethylbenzthiozoline sulfonic acid) (ABTS) substrate with H2 O2. […] A small surrounding lighter green halo formed on the glass filter. […] The v-mos beads were readily distinguished.
# [7] = tested on: anti-β-endorphin MAb; assay: library bead screening with biotinylated anti-β-endorphin MAb and streptavidin-alkaline phosphatase; assay type: binding; conditions: recycled pentapeptide library, 16 hours with biotinylated MAb
# Method: Prior to using the same random peptide library to screen with anti-β-endorphin MAb, all the blue beads that had stained for streptavidin-alkaline phosphatase alone were removed. The remaining beads were then treated with 8M guanidine hydrochloride to remove any bound protein. This recycled library was then mixed with biotinylated anti-β-endorphin MAb (anti-β-endorphin, clone 3-E7, was obtained commercially from Boehringer Mannheim, Indianapolis, Ind.) for 16 hours. After extensive washing, a secondary step with streptavidin-alkaline phosphatase was used to trigger the staining reaction for the ELISA. […] Peptide analogues with various carboxyl terminus of these ligand leads were synthesized and their affinity (Ki) was determined using [^3 H]Leu-enkaphalin (New England Nuclear, Boston, Mass.) as the labelled ligand and the unlabelled peptides as the competing ligand (anti-β-endorphin assay, Section 10.1.2, supra).
# [8] = molecular target: anti-β-endorphin MAb; assay: anti-β-endorphin binding assay: peptide inhibition of [3H][Leu]enkephalin binding, solution phase; conditions: for Ki: competition with 5.0 nM [3H][Leu]enkephalin
# Method: Peptide ligand binding affinities for the anti-β-endorphin monoclonal antibody were determined in solution phase. […] Specific binding was defined as the difference between binding measured in the presence or absence of 1.0 μM unlabelled [Leu]enkephalin. Bound radioligand was precipitated by the addition of a 10-fold excess of Protein-G Sepharose (Pharmacia) followed by an overnight incubation (23°-24° C.). The Protein-G Sepharose was collected by centrifugation (13,000×g for 5 minutes) and the pellets suspended in 250 μl 5% (v/v) acetic acid before transfer to vials for liquid scintillation counting. […] Peptide ligand inhibition curves were produced for eight concentrations of the peptide over a 400-fold range. Binding data for saturation and inhibition studies were analyzed by weighted-nonlinear regression methods using appropriate one site models reported by Knapp et al. (1990, J. Pharmacol. Exp. Ther. 255:1278-1282). Ki values for inhibition binding constants were calculated using the method of Cheng and Prusoff (1973, Biochem. Pharmacol. 22:3099-3102). Each Ki value was calculated from three to four independent determinations.
# [9] = peptide with carboxyl terminus --NH2, read-out: Ki, Carboxyl Terminus --NH2
# [10] = peptide with carboxyl terminus --OH, read-out: Ki, Carboxyl Terminus --OH
molecule,measurement,setting,value
"O=C(O)CCCC[C@@H]1SC[C@@H]2NC(=O)N[C@@H]21 [Biotin, biotin]",inhibition of staining of LHPQF-resin,[1]; biotin 0.1 nM,no effect on the staining
same,inhibition of staining of LHPQF-resin,[1]; biotin 1.0 nM,partially inhibited the staining
same,inhibition of staining of LHPQF-resin,[1]; biotin 10 nM,partially inhibited the staining
same,inhibition of staining of LHPQF-resin,[1]; biotin 100 nM,completely blocked staining
same,effect on staining of LHPQF-resin mimotope beads,"[1]; biotin 100, 10, 1 and 0.1 nM (figure legend)",concentration-dependent inhibitory effect
Fmoc-Trp-Tyr (OBu^t)-Phe-βNb-gAla-ACA-EDA-PepSyn K [peptide i],cleavage product,[2],cleaved to a single product
GFGSVY-NH2,Ki,[3],246 to 337 µM
GFGSVY-OH,Ki,[3],> 1000 µM
GFGSVY[βAla]-NH2,Ki,[3],409 to 442 µM
GFGSVY[βAla]-OH,Ki,[3],529 to 770 µM
GRRAYE-NH2,Ki,[3],24.7 ± 7 µM
GRRAYE-OH,Ki,[3],6.79 ± 2.31 µM
GRRAYE[βAla]-NH2,Ki,[3],9.02 to 20.4 µM
GRRAYE[βAla]-OH,Ki,[3],15.1 ± 0.5 µM
GRREGP[βAla]-NH2,Ki,[3],26.9 ± 6.2 µM
GRRGME-OH,Ki,[3],> 100 µM
GRRGME[βAla]-NH2,Ki,[3],24 ± 8.4 µM
GRRPYG-OH,Ki,[3],> 1000 µM
GRRPYG[βAla]-NH2,Ki,[3],20.5 ± 4.5 µM
"GSVYKA [short v-mos beads, residue 106-111 of the v-mos gene product on polyacrylamide bead; negative control, reference compound]",bead colour after staining,[4],remained colorless
GSVYKA [short v-mos peptide],affinity of the antibody,[5],negligible affinity
Gly-Phe-Gly-Ser-Val-Tyr-aminocaproic acid-β-Ala-resin (GFGSVY-{Ahx-βAla-PAM resin}) [PAM resin/v-mos peptide beads],bead colour after staining,[6],turned dark green
"LGSGGFGSVYKA [residues 100 to 111 of the v-mos oncogene product, reference compound]",Ki,[3],3.2 ± 0.4 µM
Leu-Gly-Ser-Gly-Gly-Phe-Ser-Val-Tyr-Lys-Ala-aminocaproic acid-ethylenediamine resin [long v-mos beads],bead colour after staining,[4],turned purple
YGALQ,identified as ligand bead in the screening,[7],identified in this screening
YGGFA,Ki,[8]; [9],0.072 ± 0.0164 µM
same,Ki,[8]; [10],0.0329 ± 0.002 µM
same,identified as ligand bead in the screening,[7],identified in this screening
YGGFQ,Ki,[8]; [9],0.0401 ± 0.006 µM
same,Ki,[8]; [10],0.015 ± 0.0017 µM
same,identified as ligand bead in the screening,[7],identified in this screening
YGGFT,Ki,[8]; [9],0.0652 ± 0.0168 µM
same,Ki,[8]; [10],0.0369 ± 0.0077 µM
same,identified as ligand bead in the screening,[7],identified in this screening
YGGLQ,Ki,[8]; [9],2.91 ± 0.695 µM
same,Ki,[8]; [10],1.98 ± 0.303 µM
YGGLS,Ki,[8]; [9],0.991 ± 0.052 µM
same,Ki,[8]; [10],0.726 ± 0.134 µM
same,identified as ligand bead in the screening,[7],identified in this screening
YGGMV,Ki,[8]; [9],14 ± 1.11 µM
same,Ki,[8]; [10],8.78 ± 1.5 µM
same,identified as ligand bead in the screening,[7],identified in this screening
[^3 H][Leu]enkephalin [reference compound],Kd,"[8]; saturation analysis, n=3, 5 radioligand concentrations 1.87-30 nM",0.00979 ± 0.00463 µM
